Legend:
[1] = tested on: TMD8 cells transfected with BTK T316A; conditions: 100 nM ibr 3 days, 10 μM BrdU 2 hrs
Procedure: (§1) FIGS. 3A-C. […] (A) Growth of TMD8 cells transfected with BTK T316A, C481S, and WT BTK constructs. The transfected cells were cultured with either 100 nM ibr or DMSO. The live cell numbers were counted daily to 7 days. […] (B) Cell proliferation evaluated with the BrdU incorporation assay. Cells transfected with WT BTK and T316A were treated with 100 nM ibr for 3 days and were labeled with 10 μM BrdU for 2 hrs.
(§2) BTK WT or mutant-transfected TMD8 cells were treated with ibr for 72 hrs at indicated doses. Cells were then exposed to 10 μM BrdU for 2 hrs followed by cell cycle analysis according to the manufacturer's instructions using BrdU Flow Kit (BD Pharmingen, San Diego, CA, USA). Flow cytometric analysis was performed using 4-laser BD LSR II using FACSDiva and FlowJo software.
(§3) The functional impact of T316A mutation was assessed at the cellular levels. BTK wild type (WT) and T316A as well as C481S expression vectors were constructed and transfected into an ibr-sensitive lymphoma cell line (TMD8) and cell growth was followed.

[2] = tested on: TMD8 cells transfected with WT BTK; conditions: 100 nM ibr 3 days, 10 μM BrdU 2 hrs
Procedure: as §1, §2, §3

C=CC(=O)N1CCC[C@@H](n2nc(-c3ccc(Oc4ccccc4)cc3)c3c(N)ncnc32)C1 [Ibrutinib, ibrutinib]
BrdU incorporation (cellular proliferation) under ibr [1]: 31.8%
BrdU incorporation (cellular proliferation) under ibr [2]: 9.71%
